{"source": "patent US8603498B2", "about": "“Lipo-phosphated or lipo-sulphated compound, compositions comprising it and topical uses thereof” (Sederma, S.A.S., priority 2010, dated 2013)", "key": {"collagen I": {"tested_on": "collagen I", "assay": "Synthesis of collagen I on human dermal fibroblast (immunolabeling)", "format": "cell-based", "conditions": "for collagen I AFU mean: 7 days", "protocol": "Normal human fibroblasts (NHF) are cultivated in MW24 plates for 24 hours. The cells are contacted or not with the Lipo-Phosphomalate of the invention at various concentrations for 7 days. The synthesis of collagen I produced by the cells is then quantified by immunolabeling fixed on the layers using a specific antibody. Quantification by image analysis is then performed on the photos. TGF-β1 is used as positive control.\nAn analysis of variance was performed on the data (cases treated compared with untreated cases). In the case of identity of variances, a Student't test was then performed on the means."}, "loricrin": {"tested_on": "loricrin", "assay": "Production of loricrin in cultured human keratinocytes by immunolabelling", "format": "cell-based", "conditions": "for Loricrin Change (%): vs control", "protocol": "Protocol: Human keratinocytes were cultivated up to confluence. The cells were then placed in contact/not contact with the solubilized Lipo-Phosphomalate for 21 days. At the end of this contact period, labelling common to both filaggrin and profilaggrin was carried out on cell layers using specific antibodies. Labelling intensity was analysed on photos (n=15 photos) and compared to that obtained for the negative control and for vitamin D3 at 10^−7M used as a positive differentiation control.\nLoricrine is one of the key elements in the formation of the corneal envelope. It is attached to involucrin (see 1.1) by transglutaminase, which forms rigid, insoluble structures. The method described in 1.2. was used."}, "involucrin gene": {"tested_on": "involucrin gene", "assay": "DNA-Array study, involucrin gene", "format": "cell-based", "conditions": "in the presence of solubilised Lipo-Phosphomalate", "text": "(§1) In addition, a DNA-Array study has shown that the transglutaminase-1 and involucrin genes are over-expressed in the network with other genes essential for the formation of the corinfied layer in the presence of solubilised Lipo-Phosphomalate."}, "transglutaminase": {"tested_on": "transglutaminase", "assay": "Transglutaminase activity in keratinocytes by enzymology (fluorescent substrate)", "format": "cell-based, human", "conditions": "5 ppm, 14 days; for Enzymology % Change: vs control", "text": "At the end of the 14-day contact period, the cells were placed in contact with a fluorescent synthetic transglutaminase substrate. Metabolisation of the substrate via transglutaminase will allow the fixation in the intracellular protein matrix. After rinsing, the non fixed fluorescent substrate is eliminated and the fluorescence fixed in the cells by the enzyme is quantified."}, "[1]": {"tested_on": "non hydroxylated ceramides", "assay": "Non hydroxylated ceramides in keratinocytes by HPTLC", "format": "cell-based, human", "conditions": "5 ppm", "protocol": "The same protocol was followed as before but a larger quantity of keratinocyes was used on this occasion because of the limits of detection of the apparatus. After 7 days, the layers were rinsed, lipids extracted using solvents before being deposited on a thin-layer chromatography plate using an automated device. After migration and detection, the bands were analysed and quantified based on a range of standard lipids deposited on the same plate.\nAt the same time as the HPTLC cholesterol assay, an assay of hydroxylated and non-hydroxylated ceramides was carried out on the extracts."}, "CD44": {"tested_on": "CD44", "assay": "CD44 synthesis by human keratinocytes (immunological labeling)", "format": "cell-based", "conditions": "5 ppm, 22 days", "text": "Human keratinocytes were cultivitated in 35 mm box to confluence. Cells are contacted or not with the Lipo-Phosphomalate for 22 days. At the end of this contact period, the cells are fixed and an immunological labeling of the CD44 is made using specific antibodies."}, "matriptase": {"tested_on": "matriptase", "assay": "Production of matriptase in cultured human keratinocytes by immunolabelling", "format": "cell-based", "conditions": "for Matriptase Change (%): vs control"}, "tyrosinase": {"target": "T1, tyrosinase (Homo sapiens, UniProt P14679)", "T1 construct": "endogenous in cells; host or cells: human melanocytes (homogenates)", "T1 sequence (P14679 19-529)": "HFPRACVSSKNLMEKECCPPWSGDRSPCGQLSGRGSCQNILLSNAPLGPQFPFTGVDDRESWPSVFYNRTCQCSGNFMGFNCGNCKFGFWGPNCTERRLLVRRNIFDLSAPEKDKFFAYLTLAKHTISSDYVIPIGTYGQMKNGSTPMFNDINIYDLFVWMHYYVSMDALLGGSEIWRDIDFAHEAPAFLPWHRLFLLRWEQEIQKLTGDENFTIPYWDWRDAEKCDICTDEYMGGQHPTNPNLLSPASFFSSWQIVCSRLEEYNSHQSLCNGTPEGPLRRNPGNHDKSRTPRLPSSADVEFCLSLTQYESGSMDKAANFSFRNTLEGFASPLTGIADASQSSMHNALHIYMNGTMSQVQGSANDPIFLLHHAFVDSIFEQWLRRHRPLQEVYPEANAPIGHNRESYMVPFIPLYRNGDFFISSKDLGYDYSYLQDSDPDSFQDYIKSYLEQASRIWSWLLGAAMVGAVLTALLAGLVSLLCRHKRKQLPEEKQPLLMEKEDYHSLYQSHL", "assay": "Tyrosinase activity of human melanocytes", "format": "cell-based", "conditions": "5 days", "protocol": "Human melanocyte are sowed and contacted with the […] for 5 days. At the end of the incubation period, the residual tyrosinase activity was measured in cell homogenates."}, "fibroblasts": {"tested_on": "fibroblasts", "assay": "Lipid production in fibroblasts", "format": "cell-based", "text": "This lipid production by the Lipo-Phosphomalate was not observed in fibroblasts or melanocytes. It is therefore a specific effect related to the metabolism of keratinocyte during its differentiation."}, "caspase-14": {"tested_on": "caspase-14", "assay": "Production of caspase-14 in cultured human keratinocytes by immunolabelling", "format": "cell-based", "conditions": "for Caspase Change (%): vs control"}, "3T3-L1 cells": {"tested_on": "3T3-L1 cells", "assay": "Lipid incorporation by 3T3-L1 cells (oil red, image analysis)", "format": "cell-based", "protocol": "3T3-L1 cells are sowed and cultivated for 4 days (multiplication). Follow a differentiation phase (incubation with a classic differentiation mixture) and then a maturation phase (with a maturation mixture) in the presence or not of the Lipo-Phosphomalate at different concentrations. At the end of this period, cells were washed, fixed and coloured with oil red. The cell layers were photographed digitally and the red color is quantified by image analysis. The surface percentages of red oil, reported in the table below, were established compared to untreated control cells, and the test validated by comparison to pioglytazone (10 μM), positive control for stimulation of differentiation."}, "transglutaminase-1 gene": {"tested_on": "transglutaminase-1 gene", "assay": "DNA-Array study, transglutaminase-1 gene", "format": "cell-based", "conditions": "in the presence of solubilised Lipo-Phosphomalate", "text": "as §1"}, "[2]": {"conditions": "5 ppm, listed as Solubilised Lipo-Phosphomalate"}, "[3]": {"conditions": "5 ppm, listed as solubilised Lipo-Phosphomalate"}}}
{"smiles": "CCCCCCCCCCCCCCOC(=O)CC(OP(=O)(O)O)C(=O)O", "note": "(stereo not shown) [Lipo-Phosphomalate, 2-phosphate-succinic-acid-4-tetradecyle ester]", "values": [{"measurement": "collagen I AFU mean", "setting": "collagen I; Eq 3%", "result": "21.1 +/− 13.8 AFU"}, {"measurement": "collagen I % Variation/control", "setting": "collagen I; Eq 5%", "result": "+496%;"}, {"measurement": "collagen I AFU mean", "setting": "collagen I; Eq 5%", "result": "30.4 +/− 14.6 AFU"}, {"measurement": "Loricrin (UFA/10^6 cell.)", "setting": "loricrin; 1.5 ppm", "result": "1.69 ± 0.67", "unit": "UFA/10^6 cell."}, {"measurement": "Loricrin Change (%)", "setting": "loricrin; 1.5 ppm", "result": "+131%; p < 0.01"}, {"measurement": "Loricrin (UFA/10^6 cell.)", "setting": "loricrin; 5 ppm", "result": "3.84 ± 1.19", "unit": "UFA/10^6 cell."}, {"measurement": "Loricrin Change (%)", "setting": "loricrin; 5 ppm", "result": "+426%; p < 0.01"}, {"measurement": "involucrin gene expression (DNA-Array)", "setting": "involucrin gene", "result": "over-expressed"}, {"measurement": "Enzymology Transglutaminase (UFA/10^6 cell.)", "setting": "transglutaminase", "result": "516 ± 63", "unit": "UFA/10^6 cell."}, {"measurement": "Enzymology % Change", "setting": "transglutaminase; listed as Solubilised Lipo-Phosphomalate", "result": "+124%; p < 0.01"}, {"measurement": "Enzymology % Change", "setting": "transglutaminase; listed as solubilised Lipo-Phosphomalate", "result": "~+100%"}, {"measurement": "Non hydroxylated Ceramides (pg/10^6 cell.)", "setting": "[1]; 7 days", "result": "8.41 ± 1.30", "unit": "pg/10^6 cell."}, {"measurement": "Non hydroxylated Ceramides % Change", "setting": "[1]; vs control", "result": "+256%; p < 0.01"}, {"measurement": "CD44 % Variation/control", "setting": "CD44", "result": "+587%; p <"}, {"measurement": "CD44 UFA/10^6 cells", "setting": "CD44", "result": "27.20 +/− 16.5 UFA/10^6 cells"}, {"measurement": "CD44 variation/control (times)", "setting": "CD44", "result": "0.01 => ×7"}, {"measurement": "Matriptase (UFA/10^6 cell.)", "setting": "matriptase; 1.5 ppm", "result": "2.27 ± 0.47", "unit": "UFA/10^6 cell."}, {"measurement": "Matriptase Change (%)", "setting": "matriptase; 1.5 ppm", "result": "+125%; p < 0.01"}, {"measurement": "Matriptase (UFA/10^6 cell.)", "setting": "matriptase; 5 ppm", "result": "4.08 ± 1.56", "unit": "UFA/10^6 cell."}, {"measurement": "Matriptase Change (%)", "setting": "matriptase; [2]", "result": "+304%; p < 0.01"}, {"measurement": "Matriptase Change (%)", "setting": "matriptase; [3]", "result": "+304%"}, {"measurement": "tyrosinase activity Variation (%)", "setting": "tyrosinase; 10 ppm", "result": "−21%; p < 0.01"}, {"measurement": "tyrosinase activity Variation (%)", "setting": "tyrosinase; 12 ppm", "result": "−28%; p < 0.01"}, {"measurement": "tyrosinase activity Variation (%)", "setting": "tyrosinase; 15 ppm", "result": "−31%; p < 0.01"}, {"measurement": "lipid production (cholesterol, ceramides)", "setting": "fibroblasts", "result": "not observed"}, {"measurement": "Caspase (UFA/10^6 cell.)", "setting": "caspase-14; 1.5 ppm", "result": "1.13 ± 0.44", "unit": "UFA/10^6 cell."}, {"measurement": "Caspase Change (%)", "setting": "caspase-14; 1.5 ppm", "result": "+121%; p < 0.01"}, {"measurement": "Caspase (UFA/10^6 cell.)", "setting": "caspase-14; 5 ppm", "result": "1.68 ± 0.64", "unit": "UFA/10^6 cell."}, {"measurement": "Caspase Change (%)", "setting": "caspase-14; [2]", "result": "+229%; p < 0.01"}, {"measurement": "Caspase Change (%)", "setting": "caspase-14; [3]", "result": "+229%"}, {"measurement": "surface of red oil % Change/control", "setting": "3T3-L1 cells; 10 ppm", "result": "+171%; p < 0.01"}, {"measurement": "surface of red oil % Change/control", "setting": "3T3-L1 cells; 15 ppm", "result": "+294%; p < 0.01"}, {"measurement": "surface of red oil % Change/control", "setting": "3T3-L1 cells; 20 ppm", "result": "+481%; p < 0.01"}, {"measurement": "transglutaminase-1 gene expression (DNA-Array)", "setting": "transglutaminase-1 gene", "result": "over-expressed"}]}
